PMC6792352, “Limited Chemical Structural Diversity Found to Modulate Thyroid Hormone Receptor in the Tox21 Chemical Library” (Environmental Health Perspectives, 2019)
Counter-ions that a name gives are not always drawn.

Experiment: in vitro
Conditions: rat, gh3-tre-luc cells

SMILES | CC50 at 24 h (AC50 (uM) modified / 1000) | also measured
BrC(Br)C(Br)Br [1,1,2,2-Tetrabromoethane] | > 90 µM | 
OCCN(CCO)c1nc(N2CCCCC2)c2nc(N(CCO)CCO)nc(N3CCCCC3)c2n1 [Dipyridamole] | > 50 µM | 
O=[N+]([O-])c1c(Cl)cc(Cl)cc1Cl [2,4,6-Trichloronitrobenzene] | > 90 µM | 
O=C(Nc1cccc([N+](=O)[O-])c1)c1cc2ccccc2cc1O [3-Hydroxy-N-(3-nitrophenyl)naphthalene-2-carboxamide] | 1.77 µM | 
OCC=CCO [2-Butene-1,4-diol] | > 90 µM | 
NCCOS(=O)(=O)O [2-Aminoethyl hydrogen sulfate] |  | CC50 at 24 h (AC50 (uM) modified / 1000, Tox21_110001=Tox21_302045, viability, 1 nM T3 present, 24 h): > 90 µM
O=C(O)c1cccc(Cl)c1Cl [2,3-Dichlorobenzoic acid] | > 90 µM | 
CC(C)C(C(=O)OC(C#N)c1cccc(Oc2ccccc2)c1)c1ccc(OC(F)F)cc1 (stereo not shown) [Flucythrinate] | > 90 µM | 
NC(=O)Oc1ccc(Cc2ccccc2)cc1 [Diphenan] | > 50 µM | 
O=C1c2ccccc2C(=O)C1c1ccc(Br)cc1 [Bromindione] | > 50 µM | 
CC(=O)S[C@H](C(=O)N[C@H]1Cc2ccccc2[C@H]2CCC[C@@H](C(=O)O)N2C1=O)C(C)C [Ilepatril] | > 90 µM | 
CN(C)c1ccc(O)c2c1C[C@H]1C[C@H]3[C@H](N(C)C)C(O)=C(C(N)=O)C(=O)[C@@]3(O)C(O)=C1C2=O [Minocycline hydrochloride] | > 90 µM | 
O=C(O)CCCCC(=O)O [Hexanedioic acid] | > 90 µM | 
CC(C)(O)c1coc(S(=O)(=O)NC(=O)Nc2c3c(cc4c2CCC4)CCC3)c1 [CP-456773] | > 90 µM | 
CCCCCCCCCCCCCC=O [Tetradecanal] | > 5 µM | 
OCCCl [2-Chloroethanol] |  | CC50 at 24 h (AC50 (uM) modified / 1000, Tox21_110001=Tox21_300043, viability, 1 nM T3 present, 24 h): > 90 µM
CC(=O)OCC(COC(C)=O)OC(C)=O [Triacetin] | > 90 µM | 
CCC[N+]1(C)CCCCC1 [1-Methyl-1-propylpiperidinium bromide] | > 90 µM | 
NS(=O)(=O)c1cc(Cl)c(Cl)c(S(N)(=O)=O)c1 [Dichlorphenamide] | > 20 µM | 
CCCCCCCCC(=O)O [Nonanoic acid] | > 90 µM | 
N#CCCSCCC#N [3,3'-Thiodipropionitrile] | > 90 µM | 

SMILES | CC50 at 24 h (AC50 (uM) modified / 1000) | also measured
Cc1cccc(N)c1C [2,3-Dimethylaniline] | > 90 µM | 
O=C(O)/C=C(\CC(=O)O)C(=O)O [trans-Aconitic acid] | > 50 µM | 
COC(=O)c1cccc(Cl)c1 [Methyl 3-chlorobenzoate] | > 90 µM | 
CCC(C(=O)OCCN(CC)CC)c1ccccc1 (stereo not shown) [Butetamate] | > 50 µM | 
N#Cc1ccc(Cl)cc1 [4-Chlorobenzonitrile] |  | CC50 at 24 h (AC50 (uM) modified / 1000, Tox21_110001=Tox21_301477, viability, 1 nM T3 present, 24 h): > 90 µM
CN(C)c1ccc(C=O)cc1 [4-Dimethylaminobenzaldehyde] | > 90 µM | 
Cc1c(NC(=O)c2cccnc2)c(=O)n(-c2ccccc2)n1C [Nifenazone] | > 20 µM | 
CCCCCCCCCCCCCCCCCCOS(=O)(=O)O [Octadecyl sulfate sodium salt] | 53.1 µM | 
O=C1CCCCC1Cl (stereo not shown) [2-Chlorocyclohexanone] |  | CC50 at 24 h (AC50 (uM) modified / 1000, Tox21_110001=Tox21_200522, viability, 1 nM T3 present, 24 h): > 90 µM
COc1ccc2c3c1O[C@H]1[C@@H](O)C=C[C@H]4[C@@H](C2)N(C)CC[C@@]341 [Codeine hydrochloride] | > 90 µM | 
C=CCn1c(=O)n([C@@H]2O[C@H](CO)[C@@H](O)[C@H]2O)c2nc(N)[nH]c(=O)c21 [Loxoribine] | > 50 µM | 
Cc1ncc(CNC(=O)N(CCCl)N=O)c(N)n1 [Nimustine] | > 50 µM | 
NC(=O)CC[C@@H](N)C(=O)O [D-Glutamine] | > 50 µM | 
CCCCCCCCBr [1-Bromooctane] | > 90 µM | 
CC(NN)c1ccccc1 (stereo not shown) [Mebanazine] | > 50 µM | 
CCOC(=O)NCCOc1ccc(Oc2ccccc2)cc1 [Fenoxycarb] | > 90 µM | 
CN(C)c1ccc(N=NS(=O)(=O)O)cc1 [Fenaminosulf] | > 90 µM | 
O=S(O)CO [Hydroxymethanesulfinic acid monosodium salt dihydrate] | > 50 µM | 
CCCCCCCCCCCCCCCCCC[n+]1ccn(C)c1 [1-Methyl-3-octadecylimidazolium hexafluorophosphate] | 9.82 µM | 
COCc1nnc(-c2ccc[n+]([O-])c2)n1-c1c(Cl)c(Cl)cc2[nH]c(=O)c(=O)[nH]c12 [UK-333747] | > 90 µM | 
COP(=S)(OC)Oc1ccc(S(N)(=O)=O)cc1 [Cythioate] |  | CC50 at 24 h (AC50 (uM) modified / 1000, Tox21_110001=Tox21_113080, viability, 1 nM T3 present, 24 h): > 50 µM

SMILES | CC50 at 24 h (AC50 (uM) modified / 1000) | also measured
C=CCCCCCCCCC(=O)OC [Methyl 10-undecenoate] | > 50 µM | 
CCOP(=S)(OCC)Oc1cc(C)nc(C(C)C)n1 [Diazinon] | > 90 µM | 
C=CCCCCCCCCC=O [Undec-10-enal] | > 90 µM | 
CC(C)CC(=O)CC(C)CC(C)C (stereo not shown) [2,6,8-Trimethyl-4-nonanone] | > 90 µM | 
Nc1nc2nc[nH]c2c(=S)[nH]1 [6-Thioguanine] | > 90 µM | 
COCCCOc1cc(C[C@@H](C[C@H](N)[C@@H](O)C[C@H](C(=O)NCC(C)(C)C(N)=O)C(C)C)C(C)C)ccc1OC [Aliskiren hydrochloride] | > 50 µM | 
O=C(O)CCNC(=O)c1ccccc1 [Betamipron] | > 50 µM | 
CCCC(C)(COC(N)=O)COC(=O)NC(C)C (stereo not shown) [Carisoprodol] |  | CC50 at 24 h (AC50 (uM) modified / 1000, Tox21_110001=Tox21_110122, viability, 1 nM T3 present, 24 h): > 50 µM; CC50 at 24 h (AC50 (uM) modified / 1000, Tox21_110001=Tox21_200623, viability, 1 nM T3 present, 24 h): > 90 µM
N=C(N)NCCC[C@H](N)C(=O)O [L-Arginine] | > 50 µM | 
C=CCBr [Allyl bromide] |  | CC50 at 24 h (AC50 (uM) modified / 1000, Tox21_110001=Tox21_200801, viability, 1 nM T3 present, 24 h): > 100 µM
CCCCc1cc2c(=O)c(C(=O)OC)c[nH]c2cc1OCc1ccccc1 [Nequinate] | > 50 µM | 
CCCCOC(=O)c1ccc(N)cc1 [Butyl 4-aminobenzoate] | > 50 µM | 
COc1cc(C[C@@H](C)N)c(OC)cc1C [R-(-)-2,5-Dimethoxy-4-methylamphetamine hydrochloride] | 41.9 µM | 
O=C(O)C(F)(F)C(F)(F)C(F)(F)C(F)(F)C(F)(F)C(F)(F)C(F)(F)C(F)(F)C(F)(F)C(F)(F)F [Perfluoroundecanoic acid] |  | CC50 at 24 h (AC50 (uM) modified / 1000, Tox21_110001=Tox21_300606, viability, 1 nM T3 present, 24 h): > 90 µM
O=C(O)[C@@H]1C[C@H](CP(=O)(O)O)CCN1 (racemic) [Selfotel] | > 50 µM | 
COc1cc(C(C)C)c2c(c1)S(=O)(=O)N(COc1cc(=O)n3cccc(OCCN4CCCCC4)c3n1)C2=O [SSR69071] | 11.9 µM | 
O=[N+]([O-])c1ccc(CCO)cc1 [2-(4-Nitrophenyl)ethanol] | > 90 µM | 
Cc1ccc(S)cc1 [4-Thiocresol] | > 90 µM | 
C(=C\c1ccncc1)/c1ccccc1 [4-Styrylpyridine] | > 50 µM | 
COC(=O)CCCCC(=O)O [Methyl hexanedioate] | > 90 µM | 
COc1ccccc1Oc1c(NS(=O)(=O)c2ccc(C(C)(C)C)cc2)nc(-c2ncccn2)nc1OCCO [Bosentan] | > 50 µM | 

SMILES | CC50 at 24 h (AC50 (uM) modified / 1000) | also measured
Cc1ccc(NC(=O)N(C)C)cc1NC(=O)N(C)C [3,3'-(4-Methylbenzene-1,3-diyl)bis(1,1-dimethylurea)] | > 90 µM | 
O=Cc1ccccc1O [Salicylaldehyde] | > 90 µM | 
O=C1CCCc2ccccc21 [1,2,3,4-Tetrahydronaphthalen-1-one] | > 90 µM | 
CCCCCC(C)OC(=O)COc1ccc(Cl)c2cccnc12 (stereo not shown) [Cloquintocet-mexyl] | 71.4 µM | 
CCCCC(CC)COC(=O)c1ccc(C(=O)OCC(CC)CCCC)cc1 (stereo not shown) [Bis(2-ethylhexyl) terephthalate] | > 90 µM | 
CCCCCCCCCCCCO [1-Dodecanol] | > 90 µM | 
NCCCN1CCN(CCCN)CC1 [1,4-bis(3-Aminopropyl)piperazine] | > 90 µM | 
C1CCC2OC2C1 (stereo not shown) [Cyclohexene oxide] | > 100 µM | 
CC(C)NCC(O)COc1ccccc1-n1cccc1 (stereo not shown) [Isamoltan] | > 50 µM | 
COC(=O)CC(=O)C(C)(C)C [Methyl pivaloylacetate] | > 90 µM | 
CCc1ccccc1 [Ethylbenzene] | > 90 µM | 
CC(C)(Cl)[N+](=O)[O-] [2-Chloro-2-nitropropane] |  | CC50 at 24 h (AC50 (uM) modified / 1000, Tox21_110001=Tox21_200336, viability, 1 nM T3 present, 24 h): > 90 µM
CCCCC1C(=O)N(c2ccccc2)N(c2ccccc2)C1=O [Phenylbutazone] | > 90 µM | 
COc1cccc(CCc2ccccc2OCC(CN(C)C)OC(=O)CCC(=O)O)c1 (stereo not shown) [Sarpogrelate hydrochloride] | 17.2 µM | 
Nc1ccc(-c2ccc(N)c(N)c2)cc1N [3,3',4,4'-Tetraaminobiphenyl tetrahydrochloride] | 64.7 µM | 
O=C(Cl)c1ccccc1 [Benzoyl chloride] | > 90 µM | 
CC[C@H](OC(C)=O)C(C[C@H](C)NC)(c1ccccc1)c1ccccc1 [L-alpha-Acetyl-N-normethadol hydrochloride] |  | CC50 at 24 h (AC50 (uM) modified / 1000, Tox21_110001=Tox21_112831, viability, 1 nM T3 present, 24 h): 17.4 µM
CC1CN1 (stereo not shown) [Propyleneimine] | > 90 µM | 
C=CC(C)(O)CCC=C(C)C (stereo not shown) [Linalool] | > 90 µM | 
Fc1cccc(Cl)c1CCl [1-Chloro-2-(chloromethyl)-3-fluorobenzene] | > 90 µM | 
CCOC(=O)C(C#N)=C(c1ccccc1)c1ccccc1 [Ethyl 2-cyano-3,3-diphenylacrylate] | > 90 µM | 
